Assay results from US8455480B2, “Active agent combinations having insecticidal and acaricidal properties” (Bayer Cropscience AG, priority 2007, dated 2013).

Columns and labels:
[1] = system: Phaedon cochleariae larvae; assay: Phaedon cochleariae larvae test (sprayed cabbage leaves); settings: for Destruction in % after 2 d: single active substance
[2] = system: Myzus persicae; assay: Myzus persicae test (spray on infested cabbage leaves); format: in vivo; settings: single active substance
[3] = Phaedon cochleariae, in Brassica oleracea, 144 h, read-out: Destruction in % after 6 d

| SMILES | pest or weed control at 100 g/ha [1, 3] | pest or weed control at 4 g/ha [1, 3] | Destruction in % after 1 d ([2]; 0.16 g/ha) | Destruction in % after 6 d ([2]; 0.16 g/ha) | further results |
| --- | --- | --- | --- | --- | --- |
| O=C1C=C(N(Cc2ccc(Cl)nc2)CC(F)F)CO1 [Compound (I-5), 4-{[(6-chloropyrid-3-yl)methyl](2,2-difluoroethyl)amino}furan-2(5H)-one] | 50% |  |  |  | pest or weed control at 20 g/ha [1, 3]: 0%; Destruction in % after 2 d ([1]; 100 g/ha): 33%; Destruction in % after 6 d ([2]; 0.8 g/ha): 30% |
| O=[N+]([O-])/N=C1\NCCN1Cc1ccc(Cl)nc1 [Imidacloprid] |  | 0% | 20% |  |  |
| CN(Cc1cnc(Cl)c(F)c1)C1=CC(=O)OC1 [Compound (I-6), 4-{[(6-chloro-5-fluoropyrid-3-yl)methyl](methyl)amino}furan-2(5H)-one] | 0% |  |  |  | Destruction in % after 2 d ([1]; 100 g/ha): 0% |
| C/C(=N\C#N)N(C)Cc1ccc(Cl)nc1 [Acetamiprid] |  |  |  |  | Destruction in % after 2 d ([1]; 4 g/ha): 0%; Destruction in % after 6 d ([2]; 0.032 g/ha): 0% |
| CN/C(=N\[N+](=O)[O-])NCC1CCOC1 (stereo not drawn) [Dinotefuran] |  | 0% |  |  |  |
| CN1COCN(Cc2cnc(Cl)s2)/C1=N/[N+](=O)[O-] [Thiamethoxam] |  | 17% |  | 30% | Destruction in % after 6 d ([2]; 0.032 g/ha): 0% |
| N#C/N=C1\SCCN1Cc1ccc(Cl)nc1 [Thiacloprid] |  | 17% | 20% | 0% | Destruction in % after 2 d ([1]; 4 g/ha): 0% |
| CN/C(=N\[N+](=O)[O-])NCc1cnc(Cl)s1 [Clothianidin] |  | 33% | 0% | 10% |  |
| O=C1C=C(N(CCF)Cc2ccc(Cl)nc2)CO1 [Compound (I-4), 4-{[(6-chloropyrid-3-yl)methyl](2-fluoroethyl)amino}furan-2(5H)-one] | 0% |  |  |  | Destruction in % after 1 d ([2]; 4 g/ha): 50%; Destruction in % after 6 d ([2]; 4 g/ha): 70% |
